This note sets out measurements from ChEMBL document CHEMBL1129718, “Morphan based substance P antagonists” (Bioorg Med Chem Lett, 1996).

This assay addresses Substance-P receptor (Homo sapiens, UniProt P25103). The assay can be described thus: Compound was evaluated for binding affinity towards neurokinin NK1 receptor.

Chain of Substance-P receptor (P25103 whole entry): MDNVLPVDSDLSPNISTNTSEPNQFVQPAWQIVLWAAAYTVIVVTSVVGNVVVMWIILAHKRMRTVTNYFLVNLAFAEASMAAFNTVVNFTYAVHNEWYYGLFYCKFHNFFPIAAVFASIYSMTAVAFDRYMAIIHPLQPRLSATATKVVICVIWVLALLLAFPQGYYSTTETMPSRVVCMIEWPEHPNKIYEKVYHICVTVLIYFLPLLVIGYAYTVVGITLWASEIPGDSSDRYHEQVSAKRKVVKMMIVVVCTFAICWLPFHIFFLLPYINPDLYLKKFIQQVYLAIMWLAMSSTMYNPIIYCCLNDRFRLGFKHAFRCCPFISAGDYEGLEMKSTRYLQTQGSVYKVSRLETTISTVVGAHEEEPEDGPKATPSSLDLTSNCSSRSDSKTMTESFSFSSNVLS

As usually defined, the Ki is a measure of affinity in units of concentration, obtained from inhibition or displacement. Low values mean tighter binding, high ones weaker binding. As to `COc1ccccc1CN[C@H]1C2CCNC1(c1ccccc1)CC=C2C` (some centres not stated), the Ki was 0.631 nM.
The figure for `COc1ccccc1CN[C@@H]1C2CCNC1(c1ccccc1)CC=C2C` (some centres not stated) is > 3160 nM.
